Assay results reported in PMC4356558, “Prediction of Chemical Respiratory Sensitizers Using GARD, a Novel In Vitro Assay Based on a Genomic Biomarker Signature” (PLoS ONE, 2015).
In brackets after ≈: the same amount, converted by molar mass. Where two headings read alike, the source gives them in different places.

Experiments:
[1] = system: GRPS genomic biomarker signature (389 transcripts) in MUTZ-3 cells; experiment: GARD assay with GARD Respiratory Prediction Signature (GRPS), SVM classification of respiratory sensitizers
Procedure: (§1) The human acute myelomonocytic leukemia cell line MUTZ-3[68, 69] was obtained from Leibniz-Institut DSMZ-Deutsche Sammlung von Mikroorganismen und Zellkulturen (DSMZ, Braunschweig, Germany). Maintenance of cells, chemical stimulation of MUTZ-3 and all subsequent isolation of mRNA and preparation of cDNA were performed as previously described. In short, a phenotypic control of MUTZ-3 was performed using flow cytometry prior to chemical stimulation to ensure cells were in an immature state. The following FITC-conjugated mouse monoclonal antibodies (mAbs) were used: CD1a (DakoCytomation, Glostrup, Denmark), CD34, CD86, HLA-DR, IgG1 (BD Biosciences, Franklin Lakes, NJ). The following PE-conjugated mouse monoclonal antibodies were used: CD14 (DakoCytomation), CD54, CD80, IgG1 (BD Biosciences). Cell viability was determined using Propidium Iodide (BD Biosciences) staining. Samples were run on FACSCanto II instrument. Data was acquired using FACS Diva software (BD Biosciences) and analyzed using FCS Express V4 (De Novo Software, Los Angeles, CA). Gating was performed to exclude cell debris and non-viable cells based on forward- and side-scattering properties and quadrants established using isotype-controls. During chemical exposure, cells were seeded at 200.000 cells/ml in 24-well plates and exposed to chemical compound at the GARD input concentration. Stimulated cells were harvested after 24h incubation at 37 °C, 5% CO2 and RNA was isolated with TRIzol reagent (Life Technologies, Carlsbad, CA) using standardized protocols provided by the manufacturer. In parallel, a control of the maturity state of the cells was performed by flow cytometric analysis of CD86. Preparation of cDNA and hybridization, washing and scanning of the Human Gene 1.0 ST Arrays (Affymetrix, Santa Clara, CA, USA) was performed, according to standardized protocols provided by the manufacturer (Affymetrix).
Gene expression data obtained from the Human Gene 1.0 ST Arrays were normalized using the Single-Channel array normalization (SCAN) algorithm, and potential batch effects between different set of experiments were adjusted using the ComBat empirical bayes method. Normalizations and batch adjustments were performed in R statistical software using the open software Bioconductor v2.14 [73] with the additional software packages SCAN.UPC [70] and sva. Normalized data was imported into Qlucore Omics Explorer 3.0 (Qlucore AB, Lund, Sweden) and visualized using Principal Component Analysis (PCA). Predictors were selected from a one-way ANOVA p-value filtration, using false discovery rate (FDR) to adjust for multiple hypothesis testing, comparing respiratory sensitizers and non-respiratory sensitizers. […] The Backward Elimination algorithm was modified to minimize the Kullback-Leibler error [53] rather than maximizing the Area Under the Receiver Operating Characteristic (AUC ROC), in order to enable signature optimization in cases where the AUC ROC reaches 1.0. […] The script for Backwards Elimination was programmed in R, with the additional package e1071 [78]. The method by which the predictive genomic biomarker signature was established was validated using cross-validation based on Support Vector Machines (SVM), based on a linear kernel, as described previously. In short, the training dataset was randomly divided into a new cross-validation training dataset comprising 70% of the stimulations, and a cross-validation test dataset comprising 30% of the stimulations. In addition, care was taken to maintain the same proportion between respiratory sensitizers and non-respiratory sensitizers as in the complete training dataset. A new predictive genomic biomarker signature was identified from the cross-validation training dataset using one-way ANOVA p-value filtration as described above.

MUTZ-3 cells = experiment: Chemical cytotoxicity, concentration yielding 90% relative viability (Rv90), propidium iodide staining
From the text: A panel of 32 reference chemicals comprising a selection of 10 well characterized respiratory sensitizers and 22 non-respiratory sensitizers, collectively termed the training dataset, were used for cell stimulations in order to establish the predictive genomic biomarker signature. […] Additionally, a panel of 25 chemicals, including 6 respiratory sensitizers and 19 non-respiratory sensitizers, collectively termed the independent test dataset, were used for cell stimulations in order to form an independent testset for validation of the identified predictive genomic biomarker signature. The […] comprised both control chemicals, included during the training of the model, as well as chemicals previously unseen during training of the model. […] All chemicals were purchased from Sigma-Aldrich (St. Louis, MO, USA). Chemicals were dissolved and diluted into GARD input concentration in either water or DMSO prior to stimulation of cells. For chemicals dissolved in DMSO, the in-well concentration of DMSO was 0.1%. Monitoring of chemical cytotoxicity and establishment of GARD input concentration for each chemical compound was performed as previously described. […] Toxic compounds were used at a concentration yielding 90% relative viability (Rv90). The criterion that was first met determined the GARD input concentration for each compound.
as §1

[2] = system: CD86 expression of MUTZ-3 cells; experiment: CD86 cell surface expression of MUTZ-3 cells following chemical stimulation, flow cytometry; format: cell-based, human; settings: 24 h stimulation at GARD input concentration; students t-test, p<0.05
[3] = Max solubility of chemicals in cell media (establishment of GARD input concentration); settings: for Max solubility: dissolved in vehicle (water or DMSO); for solubility: aqueous buffer, kinetic from dmso stock
physchem = settings: aqueous buffer, kinetic from dmso stock
[4] = system: GPS genomic biomarker signature (200 genes) in MUTZ-3 cells
From the text: The GARD assay is based on measurements of transcriptional levels of a genomic biomarker signature (GARD Prediction Signature, or GPS) comprising 200 genes in the myeloid human cell line MUTZ-3 [43–45] using transcriptome-wide DNA microarray technology.
The human acute myelomonocytic leukemia cell line MUTZ-3[68, 69] was obtained from Leibniz-Institut DSMZ-Deutsche Sammlung von Mikroorganismen und Zellkulturen (DSMZ, Braunschweig, Germany). Maintenance of cells, chemical stimulation of MUTZ-3 and all subsequent isolation of mRNA and preparation of cDNA were performed as previously described [41, 42]. In short, a phenotypic control of MUTZ-3 was performed using flow cytometry prior to chemical stimulation to ensure cells were in an immature state. The following FITC-conjugated mouse monoclonal antibodies (mAbs) were used: CD1a (DakoCytomation, Glostrup, Denmark), CD34, CD86, HLA-DR, IgG1 (BD Biosciences, Franklin Lakes, NJ). The following PE-conjugated mouse monoclonal antibodies were used: CD14 (DakoCytomation), CD54, CD80, IgG1 (BD Biosciences). Cell viability was determined using Propidium Iodide (BD Biosciences) staining. Samples were run on FACSCanto II instrument. Data was acquired using FACS Diva software (BD Biosciences) and analyzed using FCS Express V4 (De Novo Software, Los Angeles, CA). […]

[5] = replicate stimulation 1, 24 h at GARD input concentration, independent test dataset, > 0 = respiratory sensitizer
[6] = replicate stimulation 2, 24 h at GARD input concentration, independent test dataset, > 0 = respiratory sensitizer
[7] = replicate stimulation 3, 24 h at GARD input concentration, independent test dataset, > 0 = respiratory sensitizer
[8] = respiratory sensitizer if any of replicate stimulations has SVM decision value > 0
[9] = concentration yielding 90% relative viability, MUTZ-3, training dataset
[10] = reference compounds of the training dataset

Row | Compound | SVM decision value 1 [1, 5] | SVM decision value 2 [1, 6] | SVM decision value 3 [1, 7] | Classification, Pos if 1 sample > 0 [1, 8] | also measured
1 | CCCCO [1-Butanol] |  |  |  |  | Classification, Pos if 1 sample > 0 [1]: Sensitizer; SVM decision value 1 [1]: −0.32; SVM decision value 2 [1]: 0.12
2 | O=[N+]([O-])c1ccc(Cl)c([N+](=O)[O-])c1 [2,4-dinitrochlorobenzene] | −1.66 | −1.18 | −1.90 | Non-sensitizer | Rv90 (MUTZ-3 cells; human): 4 µM
3 | Nc1ccccc1O [2-Aminophenol] |  |  |  |  | Rv90 (MUTZ-3 cells; human): 100 µM; Up-regulation of CD86 in comparison to unstimulated cells [2]: up-regulation of CD86 was also observed
4 | C=CC(=O)OCCO [2-Hydroxyethyl acrylate] |  |  |  |  | Rv90 (MUTZ-3 cells; [9]): 100 µM
5 | Sc1nc2ccccc2s1 [2-mercaptobenzothiazole] | −0.44 | −0.43 | −0.57 |  | 
6 | [Cl][Pt-2]([Cl])([Cl])([Cl])([Cl])[Cl].[NH4+].[NH4+] [Ammonium hexachloroplatinate] |  |  |  |  | Max solubility [3, 10]: 35 µM; Up-regulation of CD86 in comparison to unstimulated cells [2]: statistically significant
7 | O=Cc1ccccc1 [Benzaldehyde] | −0.79 | −0.87 | −0.70 | Non-sensitizer | 
8 | Cc1ccc(S(=O)(=O)NCl)cc1 [Chloramine T] | 0.52 | 0.59 |  | Sensitizer | 
9 | Clc1ccccc1 [Chlorobenzene] | −1.03 | −0.76 | −1.15 | Sensitizer | SVM decision value 4 ([1]; replicate stimulation 4, 24 h at GARD input concentration, independent test dataset, > 0 = respiratory sensitizer): 0.24; SVM decision value 5 ([1]; replicate stimulation 5, 24 h at GARD input concentration, independent test dataset, > 0 = respiratory sensitizer): 0.06
10 | OCC=Cc1ccccc1 [Cinnamyl alcohol] | −0.57 |  | −1.26 | Non-sensitizer | solubility [3]: 500 µM (≈ 67.1 µg/mL)
11 | CCOC(=O)c1ccccc1C(=O)OCC [Diethyl phthalate] | −1.37 | −0.96 | −1.22 | Non-sensitizer | 
12 | C=CCc1ccc(O)c(OC)c1 [Eugenol] | −1.67 | −1.53 | −1.51 | Non-sensitizer | Rv90 (MUTZ-3 cells; concentration yielding 90% relative viability, MUTZ-3, independent test dataset): 300 µM
13 | C=O [Formaldehyde] |  |  |  |  | Rv90 (MUTZ-3 cells): 80 µM
14 | O=CCCCC=O [Glutaraldehyde] |  |  |  |  | Rv90 (MUTZ-3 cells; [9]): 10 µM; Up-regulation of CD86 in comparison to unstimulated cells [2]: statistically significant
15 | OCC(O)CO [Glycerol] | −1.05 | −1.11 | −0.77 | Non-sensitizer | 
16 | O=CC=O [Glyoxal] | −1.02 | −0.69 | −0.56 | Non-sensitizer | Rv90 (MUTZ-3 cells): 300 µM
17 | O=C=NCCCCCCN=C=O [Hexamethylen diisocyanate] |  |  |  |  | solubility (physchem): 100 µM (≈ 16.8 µg/mL)
18 | CC(O)C(=O)O (centres unmarked) [Lactic acid] | −1.20 | −0.81 | −0.89 |  | 
19 | O=C=Nc1ccc(Cc2ccc(N=C=O)cc2)cc1 [Methylene diphenol diisocyanate] |  |  |  |  | Max solubility [3, 10]: 50 µM
20 | CCCCCCCC(=O)O [Octanoic acid] | −0.65 | −0.79 | −1.22 | Non-sensitizer | 
21 | Oc1ccccc1 [Phenol] |  |  |  |  | Classification, Pos if 1 sample > 0 [1]: Non-sensitizer; SVM decision value 1 ([1]; human): −1.04; SVM decision value 2 ([1]; human): −0.38; SVM decision value 3 ([1]; human): −0.95
22 | O=C1OC(=O)c2ccccc21 [Phtalic Anhydride] | 0.20 | −0.12 |  | Sensitizer | Max solubility ([3]; chemicals of the independent test dataset): 200 µM; Max solubility [3, 10]: 200 µM
23 | C1CNCCN1 [Piperazine] | −0.05 | −0.12 |  | Non-sensitizer | GRPS prediction compared with true identity ([1]; validation using the independent dataset): false negatives; Prediction in the GARD assay (skin sensitization) [4]: accurately predicted as skin sensitizers
24 | Oc1cccc(O)c1 [Resorcinol] | −1.01 | −0.99 | −1.40 | Non-sensitizer | 
25 | O=C(O)c1ccccc1O [Salicylic acid] | −0.73 | −1.08 | −1.13 | Non-sensitizer | 
26 | CCCCCCCCCCCCOS(=O)(=O)[O-].[Na+] [Sodium dodecyl sulphate] |  |  |  |  | Classification, Pos if 1 sample > 0 [1]: Non-sensitizer; SVM decision value 1 [1]: −1.49; SVM decision value 2 [1]: −0.80; SVM decision value 3 [1]: −1.30; Rv90 (MUTZ-3 cells): 200 µM
27 | Cc1ccc(N=C=O)cc1N=C=O [Toluendiisocyanate] |  |  |  |  | solubility (physchem): 40 µM (≈ 6.97 µg/mL)
28 | O=C(O)c1ccc2c(c1)C(=O)OC2=O [Trimellitic anhydride] |  |  |  |  | solubility [3]: 150 µM (≈ 28.8 µg/mL)
29 | O=C(O)c1ccc(O)cc1 [p-hydroxybenzoic acid] | −0.81 | −0.56 | −1.09 | Non-sensitizer | 
30 | Nc1ccc(N)cc1 [p-phenylenediamine] | −1.38 | −1.19 | −1.80 | Non-sensitizer | Rv90 (MUTZ-3 cells): 75 µM
